Results reported in publication PMC8653067 (ChemMedChem, 2021).
Entries after “also recorded” stand apart in the source; their conditions may differ. Where two headings read alike, the source gives them in different places.

How the values were obtained:
PLpro from SARS-CoV-2 [1] = target: T1, PLpro from SARS-CoV-2 (Severe acute respiratory syndrome coronavirus 2, UniProt P0DTD1); assay type: biochemical; details: for IC50: read-out: IC50 (µM) determined using Z-LRGG-AMC as a PLpro substrate
PLpro from SARS-CoV-2 [2] = target: T1, PLpro from SARS-CoV-2; assay type: biochemical; details: for Extent of PLpro inhibition in IC50 assay (in words): 5 μM Ub-AMC substrate; for IC50: read-out: IC50 (µM) determined using Ub-AMC as a PLpro substrate, 20 nM PLpro, 5 μM Ub-AMC, triplicates
PLpro from SARS-CoV-2 [3] = target: T1, PLpro from SARS-CoV-2; assay type: biochemical
[4] = target: ubiquitin C-terminal hydrolase L3; details: read-out: reported IC50 for ubiquitin C-terminal hydrolase L3; cited from earlier work
[5] = 20 nM PLpro, 50 μM Z-LRGG-AMC, triplicates
[6] = 200 μM inhibitor, 20 nM PLpro, 50 μM Z-LRGG-AMC
[7] = Z-LRGG-AMC substrate, highest tested concentration 200 μM

| Molecule | IC50 (PLpro from SARS-CoV-2 [1]; [5]) | PLpro inhibition in initial screening (PLpro from SARS-CoV-2 [3]; [6]) | further results |
| --- | --- | --- | --- |
| N#Cc1nc2c(nc1C#N)-c1ccccc1/C2=N\OCc1ccccc1 [DUB-IN-1] | > 100 µM |  |  |
| CCO/N=C1\c2ccccc2-c2nc(C#N)c(C#N)nc21 [DUB-IN-2] |  |  | IC50 (PLpro from SARS-CoV-2 [1]): > 100 µM |
| C=CCO/N=C1\c2ccccc2-c2nc(C#N)c(C#N)nc21 [DUB-IN-3] |  |  | Extent of PLpro inhibition in IC50 characterization (in words) (PLpro from SARS-CoV-2 [1]): only partial inhibition of PLpro; Extent of PLpro inhibition in IC50 assay (in words) (PLpro from SARS-CoV-2 [2]): simple inhibition curve that did not reach its plateau at the highest inhibitor concentration; IC50 (PLpro from SARS-CoV-2 [2]): > 10 µM |
| CC(=O)O/N=C1\C(=O)N(Cc2cc(Cl)ccc2Cl)c2ccc(Cl)cc21 [LDN-57444] | > 100 µM | inhibited PLpro partially but at significant levels |  |
| Cc1ccc(S(=O)(=O)Nc2cc(C(F)(F)F)ccc2C(=O)Nc2nc(-c3ccccc3)cs2)cc1 [ML364] |  | significant quenching effects leading to negative signals | Extent of PLpro inhibition in IC50 characterization (in words) (PLpro from SARS-CoV-2 [1]; [7]): did not show strong concentration-dependent inhibition of PLpro |
| Cc1ccc(/C=C2\CNC/C(=C\c3ccc(C)cc3)C2=O)cc1 [NSC63283] | > 100 µM |  |  |
| CC(=O)c1cc([N+](=O)[O-])c(Sc2cccc(Cl)c2Cl)s1 [P005091] | > 100 µM | inhibited PLpro partially but at significant levels |  |
| CC(=O)c1cc([N+](=O)[O-])c(Sc2ccc(F)cc2F)s1 [P22077] | > 100 µM | inhibited PLpro partially but at significant levels |  |
| N#CSc1cc(SC#N)c(N)nc1N [PR-619] |  | significant quenching effects leading to negative signals | Extent of PLpro inhibition in IC50 characterization (in words) (PLpro from SARS-CoV-2 [1]; [7]): strongly inhibited PLpro at concentrations above 1 μM; also recorded: can fully inhibit PLpro at 200 µM; IC50 (PLpro from SARS-CoV-2 [2]): 12.9 ± 2.4 µM |
| O=C1c2ccccc2C(=O)c2oc(-c3ccccc3)nc21 [SJB2–043] |  | inhibited PLpro partially but at significant levels | Extent of PLpro inhibition in IC50 characterization (in words) (PLpro from SARS-CoV-2 [1]; [7]): only partial inhibition of PLpro; Extent of PLpro inhibition in IC50 characterization (in words) (PLpro from SARS-CoV-2 [1]; Z-LRGG-AMC substrate, highest tested concentration 200 μM, listed as SBJ2–043): can only partially inhibit PLpro; Extent of PLpro inhibition in IC50 assay (in words) (PLpro from SARS-CoV-2 [2]): did not inhibit PLpro completely; IC50 (PLpro from SARS-CoV-2 [2]): 0.091 ± 0.024 µM |
| O=C1c2ccccc2C(=O)c2oc(-c3cccnc3)nc21 [SJB3–019A] | 8.15 ± 3.59 µM | inhibited PLpro partially but at significant levels | Extent of PLpro inhibition in IC50 characterization (in words) (PLpro from SARS-CoV-2 [1]; [7]): only partial inhibition of PLpro |
| O=C1CC(=O)c2c(Cl)c(Cl)c(Cl)c(Cl)c21 [TCID] |  |  | Extent of PLpro inhibition in IC50 characterization (in words) (PLpro from SARS-CoV-2 [1]): can fully inhibit PLpro at 200 µM; IC50 (PLpro from SARS-CoV-2 [2]): 10.5 ± 2.7 µM; PLpro inhibition in initial screening (PLpro from SARS-CoV-2 [3]): inhibited PLpro activity almost completely; IC50 [4]: 0.6 µM |
| C=CC(=O)N1CC/C(=C\c2ccc(F)c([N+](=O)[O-])c2)C(=O)/C(=C/c2ccc(F)c([N+](=O)[O-])c2)C1 [VLX1570] | > 100 µM |  |  |
| HBX19818 | > 100 µM | inhibited PLpro partially but at significant levels |  |
